US20100316585A1, “Use of Magnesium Stearate Dihydrate for Lubrication of Solid Industrial or Consumer Products” (priority 2008, published 2010)

What was measured:
[1] = Particle-size distribution by laser diffraction; assay type: physicochemical; settings: neat MgSt hydrate
Method: Particle-size distributions were determined using a laser diffraction system (series 2600, Malvern Instruments Ltd., Malvern, UK) equipped with a 63-mm lens (size range of 1.2-118 μm) and a stirred cell.

[2] = Percent water (free and bound) of neat MgSt hydrates; assay type: physicochemical; settings: neat MgSt hydrate
Method: Thermal gravimetric analysis (Q50 TGA, TA Instruments) was carried out from 25 to 190° C. at a heating rate of 5° C./min. Data acquisition and analysis were conducted using TA Instruments software. FIG. 4 presents the TGA of MgSt-M and MgSt-D.

## magnesium stearate dihydrate [MgSt-D]
[1]
  Particle size (nominal mean particle size): 14.3 μm
[2]
  Dihydrate water: 5.6%
  Monohydrate water: 0%
  percent bound moisture: 5.6%
[2]; dihydrate
  Free water: little or no free water
[2]; listed as MqSt-D, dihydrate
  Free water: 0%

## magnesium stearate [MgSt-M, reference compound]
[1]
  Particle size (nominal mean particle size): 10.6 μm
[2]
  Dihydrate water: 0%
  Free water: 0.6%
  Monohydrate water: 2.8%
  percent bound moisture: 2.8%
